Assay results as given in patent US20160287726A1, “CATIONIC CONTRAST AGENTS AND METHODS OF USING THE SAME” (The Trustees of the University of Pennsylvania, priority 2015, published 2016).

Key:
[1] = Demetallation assay in 1M HCl; assay type: physicochemical; conditions: 2.5 mM, 37° C.
Description: Since transmetallation was not observed in serum supplemented with ZnCl2, the stability of the various Gd complexes were further evaluated by monitoring demetallation in a highly acidic, non-physiologic solution (1M HCl). Even under these harsh conditions, Gd remained complexed with Compound 6 for at least 24 hours (FIG. 3B). […] Since a measurement of the T1 relaxation time could not be acquired at t=0 for this assay, the relaxation ratio could not be calculated. Instead, demetallation was monitored strictly by changes in the T1 relaxation time. In instances of demetallation, the T1 relaxation time moved towards that of free Gd.
Demetallation Assay A 300 μL solution of 2.5 mM Gd-compound was incubated at 37° C. in 1M HCl and the longitudinal relaxation times were acquired at appropriate time points. The relaxation time was then plotted against time.

[2] = Transmetallation assay with ZnCl2 in fetal bovine serum; assay type: physicochemical; conditions: 2.5 mM complex, 2.5 mM ZnCl2, fetal bovine serum, pH 7.4, 37° C., over 72 hours
Description: To directly compare the stability of Complex A to Gd-DTPA (Magnevist®) and Gd-DOTA (also known as gadoteric acid), a transmetallation assay using equimolar concentrations of ZnCl2 was performed in fetal bovine serum. Transmetallation was monitored as a function of time by calculating the relaxation ratio, R1(t)/R1(0), where R1(t) is the longitudinal Relaxivity at time t and R1(0) is the longitudinal Relaxivity in the absence of ZnCl2 (i.e. time 0).
Transmetallation of Gd^3+ ion by Zinc^2+ ion was performed in fetal bovine serum. The solution contained 4 mL of 2.5 mM Gd-complex and 2.5 mM ZnCl2 at pH 7.4. The mixture was stirred at 37° C. throughout the experiment while 300 μL aliquot was taken up at the appropriate time for measurement of the longitudinal relaxation time. The water proton relaxation times were measured using a Bruker mq60 tabletop MR relaxometer operating at 1.41T. Ratio of reverse relaxation time at each time point (R1(t)) and relaxation time at time zero (R1(0)) was plotted against time.

[3] = tested on: GAG-rich cartilage (articular cartilage microparticles from juvenile bovine femurs); assay: Electrostatic interaction with cartilage microparticles (T1 of supernatant); assay type: binding; conditions: normalized to average T1 of respective control
Description: To assess whether Gd-DOTA-Am4 interacts electrostatically with GAG-rich cartilage, articular cartilage from juvenile bovine femurs was ground into microparticles. These microparticles were then mixed and incubated with Gd-DOTA, Gd-DTPA, or Gd-DOTA-Am4. The microparticles were then pelleted and the T1 relaxation time of the supernatant was measured. Measurements were compared to analogous control Gd complexes that were not incubated with cartilage microparticles (FIG. 5). All samples were normalized to the average T1 relaxation time of their respective control.

[4] = tested on: bovine meniscal fibrochondrocytes (MFCs); assay: Cell-based safety assay on meniscal fibrochondrocyte monolayers; conditions: over 24 hours, basal media, compared with Saline
Description: (§1) The safety profile of Gd-DOTA-Am4 was assessed via both cell- and tissue-based assays. […] Similarly, after intra-articular injection of Saline, Gd-DTPA, or Gd-DOTA-Am4 into the joint space of an intact bovine femorotibial explant, the area fractions of live and dead cells in the cartilage and meniscus were equivalent after 3 hours (p>0.05) (FIG. 9).

[5] = tested on: cartilage and meniscus of an intact bovine femorotibial explant; assay: Tissue-based safety assay, intra-articular injection into femorotibial explant; conditions: after 3 hours, compared with Saline, p>0.05
Description: as §1

[6] = Relaxivity measurements (longitudinal relaxivity r1); assay type: physicochemical; conditions: Bruker mq60 MR relaxometer, 1.41 T (60 MHz), saline pH 7.4
Description: Compound2 was prepared by bromination of methyl acrylate using bromine in chloroform at room temperature, while compound 3 was prepared by slow addition of diethylamine into compound 2 in ether at 0° C. The methyl and ethyl protecting groups were efficiently removed with a methanol:NaOH (0.5 M) solvent cocktail (40:60) for 48 h. The solution was neutralized with a 2 M HCl solution and dried. The residue was redissolved in pure methanol, and the precipitate that formed was filtered and the solvent dried in vacuuo to yield compound 6. […] In comparison, the longitudinal relaxivity of Magnevist® was measured to be 3.9 mM^−1s^−1 (FIG. 2B).
Longitudinal relaxation times (T1) were measured in saline at pH 7.4 using a Bruker mq60 tabletop MR relaxometer operating at 1.41 T. The longitudinal relaxivity (r1) of the complex was calculated by plotting the reciprocal of the T1 relaxation time versus the gadolinium concentration.

[7] = tested on: adult bovine menisci explants with defect; assay: Contrast-enhanced T1-weighted MR imaging of meniscus explants with defect; conditions: 2 mM, pH 7.4, ~30 min bath; for qualitative contrast / signal intensity within soft tissue defect: T1-weighted images, 4.7 T
Description: To evaluate the efficacy of Complex A in highlighting soft tissue tears in comparison to Gd-DTPA, explants (8 mm in diameter) were obtained from adult bovine menisci. Well-defined defects were then introduced by using a punch to create a 4 mm internal core, which was left in place. Tissue explant blocks (n=9; 3 per group) were placed in a 48-well microplate and bathed in 2 mM Gd-DTPA, Complex A, or Saline (pH 7.4) for ˜30 min. The pH and concentration of Gd^+3 was kept constant throughout the experiment. T1-weighted images were then acquired in the axial plane (FIGS. 6A and 7). […] In the saline samples, the defects were extremely difficult to identify. To acquire a more quantitative comparison between the three groups, regions of interest (ROI) were drawn around the lateral defects and, following background subtraction (FIGS. 6B-D), the total signal intensity (area under curve) within the ROI was quantified and normalized to the length of the tear (FIG. 6E). The Wilcoxon signed-rank test was then used to compare contrast enhancement for the various contrast agents.
Adult bovine stifle joints were purchased from a commercial vendor (Animal Technologies, Tyler, Tex.), dissected in a sterile field, and the menisci removed. Biopsy punches (Miltex, York, Pa.) were used to produce 8 mm diameter full thickness samples in the axial plane. Well-defined defects were then introduced by using a 4 mm punch to create an internal core, which was left in place. […]
A region of interest (ROI) was determined for each MR image slice (n=6 per contrast agent, i.e. 2 slices per sample). […] The ROI height was determined for each slice individually, such that it could span the sample from top to bottom and exclude media and unrelated bright areas within the cartilage (e.g., cavities near the liquid-cartilage interface). […]
ROIs were partitioned into one-pixel tall lines spanning the entire width. […] All of the integrations in an ROI were then averaged to quantify that ROI's average signal intensity. […]

SMILES	time Gd remained complexed (demetallation) ([1]; monitored by T1 relaxation time)	transmetallation (relaxation ratio R1(t)/R1(0)) [2]	demetallation (T1 relaxation time) [1]	T1 relaxation time of supernatant after incubation with cartilage microparticles vs control without microparticles [3]	cell morphology, viability, and proliferation [4]	area fractions of live and dead cells in the cartilage and meniscus [5]	longitudinal relaxivity [6]	qualitative contrast / signal intensity within soft tissue defect [7]	qualitative contrast / signal intensity within soft tissue defect ([7]; listed as Magnevist®)	total signal intensity within ROI normalized to length of tear (contrast enhancement) ([7]; statistical comparison between groups)
NCC(C(=O)O)N1CCN(C(CN)C(=O)O)CCN(C(CN)C(=O)O)CCN(C(CN)C(=O)O)CC1 (stereo not drawn) [Compound 6, 1,4,7,10-tetraazacyclododecane-N,N′,N″,N′″-(α-(aminomethyl))-tetraacetic acid]	at least 24 hours									
O=C([O-])CN1CCN(CC(=O)[O-])CCN(CC(=O)O)CCN(CC(=O)[O-])CC1.[Gd+3] [Gd-DOTA, 1,4,7,10-tetraazacyclododecane-1,4,7,10-tetraacetic acid (DOTA) gadolinium complex]		No transmetallation was detected	rapid demetallation	no change in the relaxation time						
O=C([O-])CN(CCN(CC(=O)[O-])CC(=O)O)CCN(CC(=O)[O-])CC(=O)O.[Gd+3] [Gd-DTPA, Diethylenetriaminepentaacetic acid (DTPA) gadolinium complex]		rapidly increased	rapid demetallation	no change in the relaxation time	qualitatively similar between groups	equivalent	3.9 mM⁻¹ s⁻¹	much less contrast was observed within the defect at greater depths	less contrast was observed within the defect at greater depths	statistically significant improvement in contrast compared to saline
